# Test results as given in patent US12162857B2, “Antiviral compounds” (priority 2022, dated 2024).
# Tested on: HMPV A2 TN/94-49
# Test: HMPV antiviral assay: LLC-MK2 cells, ATP-Lite readout
# Format: cell-based
# Settings: LLC-MK2, 168 h, MOI 0.005, 7 days incubation
# Method: In vitro HMPV antiviral activity was evaluated using the clinical isolate A2 strain TN 94-49 and LLC-MK2 cells (ATCC #CCL-7), an immortalized kidney epithelial cell line from Macaca mulatta. Compounds were resuspended in dimethyl sulfoxide (DMSO) at 10 mM, serially diluted and added to a 384-well source plate. Subsequently, the compounds were diluted and transferred onto 384-well assay plates using the Echo-650 automated liquid handling system (Beckman Coulter, Indiana). The test compounds were assessed in duplicate at a top concentration of 2 μM followed by 2.5-fold serial dilutions to give a total of 10 concentration points. DMSO control wells were also included on the assay plates and were either infected or not, acting as positive and negative controls. A2 TN 94-49 virus infections were performed in-suspension with LLC-MK2 cells. The cells were washed twice with PBS and removed from the cell-culture flask with 0.25% trypsin-EDTA (Thermo Fisher Scientific, MA). The trypsin-EDTA was inactivated by resuspending in 2% fetal bovine serum (FBS) and OptiMEM (ThermoFisher Scientific, MA) containing 1% penicillin-streptomycin. Cells were pelleted by centrifuging for 5 minutes at 800 rpm, the supernatant was removed, and cells were re-suspended and washed in PBS plus 100 μg/mL CaCl2). This step was performed twice. Cells were then re-suspended in serum-free (SF)-OptiMEM containing 4 μg/mL TPCK-Trypsin (Sigma Aldrich, MO), 1% penicillin-streptomycin (ThermoFisher Scientific, MA) and 100 μg/mL CaCl2). Cells were counted and seeded at a density of 5,000 cells/well, 12.5 μL/well. Virus infections were done at a multiplicity of infection (MOI) of 0.005 with 12.5 μL added per well. Virus infections were performed in infection media which contained SF-OptiMEM, 100 μg/mL CaCl2) and 1% penicillin-streptomycin. HMPV viral stocks are suspended in infection media+5% glycerol, thus an equal volume of infection media+5% glycerol was added to uninfected wells to equalize the final % glycerol across all wells of the assay plate. The final concentration of TPCK-trypsin was 2 μg/mL. The assay plates were incubated at 37° C., 5% CO2 for 7 days. After 7 days incubation, 12.5 μL of ATP-Lite (PerkinElmer, MA) was added to each well and the raw luminescence values were determined using the Envision 2104 (Perkin Elmer, MA). The average of the raw luminescence values for the cells and virus only positive control wells was subtracted from all conditions tested and the percent cell health was determined by dividing these values by the average of the cells only negative control wells. EC50 values were then calculated by non-linear regression using a four-parameter curve logistic equation. The curve fit model employed was XLFit Dose Response One Site Model 200: y=(A+(B/(1+((x/C)^D)))), where A is the minimum y value, B is the maximum y value, C is the log EC50 value, and D is the slope factor. […] EC50 ranges are as follows: A<1 μM; B>1 μM.
row,EC50 [µM],SMILES
1,> 1,"COc1c(C(C)(C)O)cc([C@@](O)(CNC(=O)c2cc(OC)c3nn(C4CC4)cc3c2)C2CC2)nc1-c1cc(F)c(F)cc1F (single isomer, unassigned) [Example 165]"
2,> 1,COc1cc(C(=O)NC[C@@](O)(c2ccccc2)c2cc(C(C)(C)O)c(F)c(-c3ccc(F)cc3F)n2)cc2cn(C3CC3)nc12 [Example 87]
3,< 1,COc1cc(C(=O)NC[C@@](O)(c2cccc(F)c2)c2cc(C(C)(C)O)c(F)c(-c3cc(Cl)c(F)cc3F)n2)cc2sc(C)nc12 [Example 89]
4,< 1,COc1cc(C(=O)NC[C@@](O)(c2cccc(F)c2)c2cc(C(C)(C)O)c(F)c(-c3cc(Cl)c(F)cc3F)n2)cc2cn(C3CC3)nc12 [Example 90]
5,< 1,CC(C)(O)c1cc([C@@](O)(CNC(=O)c2cc(Cl)c3nn(C4CC4)cc3c2)c2cccc(F)c2)nc(-c2cc(Cl)c(F)cc2F)c1F [Example 91]
6,< 1,COc1cc(C(=O)NC[C@@](O)(c2cccc(F)c2)c2cc(C(C)(C)O)c(F)c(-c3cc(Cl)c(F)cc3F)n2)cc2cn(C(F)F)nc12 [Example 92]
7,< 1,COc1cc(C(=O)NC[C@@](O)(c2cccc(F)c2)c2cc(C(C)(C)O)c(F)c(-c3cc(Cl)c(F)cc3F)n2)cc2cc(C3CC3)nn12 [Example 93]
8,< 1,COc1cc(C(=O)NC[C@@](O)(c2cccc(F)c2)c2cc(C(C)(C)O)c(F)c(-c3cc(F)c(F)cc3F)n2)cc2cn(C(F)F)nc12 [Example 94]
9,< 1,COc1cc(C(=O)NC[C@@](O)(c2cccc(F)c2)c2cc(C(C)(C)O)c(F)c(-c3cc(F)c(F)cc3F)n2)cc2cc(C3CC3)nn12 [Example 95]
10,< 1,COc1cc(C(=O)NC[C@@](O)(c2cccc(F)c2)c2cc(C(C)(C)O)c(F)c(-c3cc(F)c(F)cc3F)n2)cc2cn(C3CC3)nc12 [Example 96]
11,< 1,CC(C)(O)c1cc([C@@](O)(CNC(=O)c2cc(Cl)c3nn(C4CC4)cc3c2)c2cccc(F)c2)nc(-c2cc(F)c(F)cc2F)c1F [Example 97]
12,< 1,COc1cc(C(=O)NC[C@@](O)(c2cccc(F)c2)c2cc(C(C)(C)O)c(F)c(-c3cccc(Cl)c3Cl)n2)cc2cn(C3CC3)nc12 [Example 98]
13,< 1,COc1cc(C(=O)NC[C@@](O)(c2cccc(F)c2)c2cc(C(C)(C)O)c(F)c(-c3cccc(Cl)c3Cl)n2)cc2cn(C(F)F)nc12 [Example 99]
14,> 1,CC(C)(O)c1cc([C@@](O)(CNC(=O)c2cc(Cl)c3nn(C4CC4)cc3c2)c2cccc(F)c2)nc(-c2cccc(Cl)c2Cl)c1F [Example 100]
15,< 1,COc1cc(C(=O)NC[C@@](O)(c2cccc(F)c2)c2cc(C(C)(C)O)c(F)c(-c3cccc(Cl)c3Cl)n2)cc2cc(C3CC3)nn12 [Example 101]
16,< 1,COc1cc(C(=O)NC[C@@](O)(c2cccc(F)c2)c2cc(C(C)(C)O)c(F)c(-c3cccc(Cl)c3Cl)n2)cc2sc(C)nc12 [Example 102]
17,< 1,COc1cc(C(=O)NC[C@@](O)(c2cccc(F)c2)c2cc(C(C)(C)O)c(F)c(-c3ccc(F)c(Cl)c3Cl)n2)cc2cn(C3CC3)nc12 [Example 103]
18,< 1,COc1cc(C(=O)NC[C@@](O)(c2cccc(F)c2)c2cc(C(C)(C)O)c(F)c(-c3ccc(F)c(Cl)c3Cl)n2)cc2cn(C(F)F)nc12 [Example 104]
19,< 1,CC(C)(O)c1cc([C@@](O)(CNC(=O)c2cc(Cl)c3nn(C4CC4)cc3c2)c2cccc(F)c2)nc(-c2ccc(F)c(Cl)c2Cl)c1F [Example 105]
20,> 1,COc1cc(C(=O)NC[C@@](O)(c2cccc(F)c2)c2cc(C(C)(C)O)c(F)c(-c3ccc(F)c(Cl)c3Cl)n2)cc2cc(C3CC3)nn12 [Example 106]
21,< 1,COc1cc(C(=O)NC[C@@](O)(c2cccc(F)c2)c2cc(C(C)(C)O)c(F)c(-c3ccc(F)c(Cl)c3Cl)n2)cc2sc(C)nc12 [Example 107]
22,< 1,COc1cc(C(=O)NC[C@@](O)(c2cccc(F)c2)c2cc(C(C)(C)O)c(F)c(-c3ccc4c(c3Cl)OC(F)(F)O4)n2)cc2sc(C)nc12 [Example 108]
23,< 1,COc1cc(C(=O)NC[C@@](O)(c2cccc(F)c2)c2cc(C(C)(C)O)c(F)c(-c3ccc4c(c3Cl)OC(F)(F)O4)n2)cc2cn(C3CC3)nc12 [Example 109]

# More lines, now with the values behind:
row,SMILES,EC50 [µM]
1,COc1cc(C(=O)NC[C@](O)(c2cc(C(C)(C)O)c(F)c(-c3cc(Cl)c(F)cc3F)n2)C2CC2)cc2cn(C3(F)CC3)nc12 [Example 53],< 1
2,COc1cc(C(=O)NC[C@](O)(c2cc(C(C)(C)O)c(F)c(-c3cc(Cl)c(F)cc3F)n2)C2CC2)cc2cn(C(F)F)nc12 [Example 54],< 1
3,CC(C)(O)c1cc([C@@](O)(CNC(=O)c2cc(OC3CC3)c3nn(C4CC4)cc3c2)C2CC2)nc(-c2cc(Cl)c(F)cc2F)c1F [Example 55],< 1
4,COc1cc(C(=O)NC[C@](O)(c2cc(C(C)(C)O)c(F)c(-c3cc(Cl)c(F)cc3F)n2)C2CC2)cc2cc(C3CC3)nn12 [Example 56],< 1
5,COc1cc(C(=O)NC[C@](O)(c2cc(C(C)(C)O)c(F)c(-c3cc(Cl)c(F)cc3F)n2)c2nccs2)cc2cn(C3CC3)nc12 [Example 58],< 1
6,COc1cc(C(=O)NC[C@@](O)(c2ccccc2)c2cc(C(C)(C)O)c(F)c(-c3cc(Cl)c(F)cc3F)n2)cc2cn(C3CC3)nc12 [Example 60],< 1
7,COc1cc(C(=O)NC[C@@](O)(c2ccccc2)c2cc(C(C)(C)O)c(F)c(-c3cc(Cl)c(F)cc3F)n2)cc2cn(C3(F)CC3)nc12 [Example 61],< 1
8,CC(C)(O)c1cc([C@@](O)(CNC(=O)c2cc(OC3CC3)c3nn(C4CC4)cc3c2)c2ccccc2)nc(-c2cc(Cl)c(F)cc2F)c1F [Example 63],< 1
9,CC(C)(O)c1cc([C@@](O)(CNC(=O)c2cc(Cl)c3nn(C4CC4)cc3c2)c2ccccc2)nc(-c2ccc(F)c(Cl)c2Cl)c1F [Example 68],< 1
10,COc1cc(C(=O)NC[C@@](O)(c2ccccc2)c2cc(C(C)(C)O)c(F)c(-c3ccc(F)c(Cl)c3Cl)n2)cc2cc(C3CC3)nn12 [Example 69],< 1
11,COc1cc(C(=O)NC[C@@](O)(c2ccccc2)c2cc(C(C)(C)O)c(F)c(-c3ccc(F)c(Cl)c3Cl)n2)cc2cn(C(F)F)nc12 [Example 70],< 1
12,COc1cc(C(=O)NC[C@@](O)(c2ccccc2)c2cc(C(C)(C)O)c(F)c(-c3ccc(F)c(Cl)c3Cl)n2)cc2sc(C)nc12 [Example 71],< 1
13,COc1cc(C(=O)NC[C@@](O)(c2ccccc2)c2cc(C(C)(C)O)c(F)c(-c3ccc4c(c3Cl)OC(F)(F)O4)n2)cc2cc(C3CC3)nn12 [Example 72],< 1
14,COc1cc(C(=O)NC[C@@](O)(c2ccccc2)c2cc(C(C)(C)O)c(F)c(-c3ccc4c(c3Cl)OC(F)(F)O4)n2)cc2sc(C)nc12 [Example 73],< 1
15,CC(C)(O)c1cc([C@@](O)(CNC(=O)c2cc(Cl)c3nn(C4CC4)cc3c2)c2ccccc2)nc(-c2ccc3c(c2Cl)OC(F)(F)O3)c1F [Example 75],> 1
16,COc1cc(C(=O)NC[C@@](O)(c2ccccc2)c2cc(C(C)(C)O)c(F)c(-c3ccc4c(c3Cl)OC(F)(F)O4)n2)cc2cn(C(F)F)nc12 [Example 76],< 1
17,CC(C)(O)c1cc([C@@](O)(CNC(=O)c2cc(Cl)c3nn(C4CC4)cc3c2)c2ccccc2)nc(-c2ccc3c(c2)OC(F)(F)O3)c1F [Example 77],> 1
18,COc1cc(C(=O)NC[C@@](O)(c2ccccc2)c2cc(C(C)(C)O)c(F)c(-c3cccc(Cl)c3Cl)n2)cc2sc(C)nc12 [Example 78],< 1
19,COc1cc(C(=O)NC[C@@](O)(c2ccccc2)c2cc(C(C)(C)O)c(F)c(-c3cccc(Cl)c3Cl)n2)cc2cn(C(F)F)nc12 [Example 80],< 1
20,COc1cc(C(=O)NC[C@@](O)(c2ccccc2)c2cc(C(C)(C)O)c(F)c(-c3cccc(Cl)c3Cl)n2)cc2cc(C3CC3)nn12 [Example 81],< 1
21,CC(C)(O)c1cc([C@@](O)(CNC(=O)c2cc(Cl)c3nn(C4CC4)cc3c2)c2ccccc2)nc(-c2cccc(Cl)c2Cl)c1F [Example 82],< 1
22,COc1cc(C(=O)NC[C@@](O)(c2ccccc2)c2cc(C(C)(C)O)c(F)c(-c3cc(F)ccc3F)n2)cc2cn(C3CC3)nc12 [Example 83],> 1
23,COc1cc(C(=O)NC[C@@](O)(c2ccccc2)c2cc(C(C)(C)O)c(F)c(-c3ccc(F)c(F)c3F)n2)cc2cn(C3CC3)nc12 [Example 84],< 1
